Measurements published in patent EP4014997A1, “STARD1 INHIBITORS FOR THE TREATMENT OF LYSOSOMAL DISORDERS” (Consejo Superior de Investigaciones Científicas (CSIC), priority 2020, dated 2022).

Assays:
[1] = test system: PMH from Npc1+/+ mice; assay: Filipin and Lamp2 co-staining, confocal microscopy (lysosomal cholesterol); assay type: cell-based, mouse; details: U18666A 2µg/ml, 16 hours
Method: (§1) PMH were isolated by collagenase perfusion at a flow rate of 7-9ml/min and cultured at a density of 2×10^5 cells in 12-well plates coated with rat tail collagen. Hepatocytes were cultured in DMEM/F12 culture media (Gibco, 21331-020) supplemented with 10% FBS for the first 3 hours post isolation, together with 10.000U/ml Penicillin-Streptomycin (Gibco, 15140-122), 200mM L-Glutamine (Gibco, 25030-024), 7.5mM D-Glucose (Sigma, G6152) and 150mM Hepes pH 7.4 (Sigma,). For subsequent treatments, FBS was replaced for 1mM methionine (Sigma, M5308).
(§2) PMH from Npc1^+/+ and human Npc^+/+ control fibroblasts were treated with U18666A (2µg/ml) or HMβCD (2mM) for 16 hours. In some other cases, PMH from Npc1^-/- and Npc^-/- fibroblast from NPC patients were treated with HMβCD as above for control PMH.
PMH were fixed for 15min with 3.7% paraformaldehyde and permeabilized for 5min with 0.2% saponin dissolved in 0.5% BSA-fatty acid free (FAF) in PBS commercial buffer. Cells were blocked with 1% BSA FAF for 15minutes. […] Percentage of cholesterol mass containing mitochondria was analyzed with the Colocalization nBits nimages plugin (Confocal Microscopy Unit, Facultad de Medicina, Universidad de Barcelona) in the ImageJ Software in 5 consecutive images of each experimental condition.

[2] = test system: PMH from Npc1+/+ mice; assay: Filipin and cytochrome c co-staining, confocal microscopy (mitochondrial cholesterol); assay type: cell-based, mouse; details: U18666A 2µg/ml, 16 hours; Npc1+/+ PMH
Method: as §1, §2
PMH were fixed for 15min with 3.7% paraformaldehyde and permeabilized for 5min with 0.2% saponin dissolved in 0.5% BSA-fatty acid free (FAF) in PBS commercial buffer. Cells were blocked with 1% BSA FAF for 15minutes. Cytochrome c (Cytc) (BD Pharmigen, #556432) and Lamp2 (Abcam, #ab13524) primary antibodies were incubated overnight in BSA 1% followed by a secondary antibody for 1 hour at room temperature in BSA 0.1%. Filipin ([…], Sigma) was added during the secondary antibody incubation and the following steps were performed in the dark. Stained samples were embedded in fluoromont (Sigma) and digital images were taken in a Leica SP2 laser scanning confocal microscope equipped with UV excitation, an argon laser, a 633/1.32 OIL PH3 CS objective and a confocal pinhole set at 1 Airy unit. All the confocal images shown were single optical sections. Scale bar represents 25 µm. Percentage of cholesterol mass containing mitochondria was analyzed with the Colocalization nBits nimages plugin (Confocal Microscopy Unit, Facultad de Medicina, Universidad de Barcelona) in the ImageJ Software in 5 consecutive images of each experimental condition.

[3] = test system: STARD1; assay: Western blot of STARD1 protein expression in primary mouse hepatocytes; assay type: cell-based; details: U18666A 2µg/ml, 16 hours; PMH from Npc1+/+ mice
Method: as §2
(§3) 100mg of liver were homogenized with a pestle homogenizer in 1ml of homobuffer (70mM saccharose, 220mM mannitol, 2mM Tris-HCI pH 7.4, 0,1mM EDTA, 0.1% fatty acid free BSA) supplemented with protease and phosphatase inhibitors (Roche). Liver homogenates were diluted 4 times with RIPA lysis buffer (Sigma) with anti-proteases and anti-phosphatases. Cells were washed with PBS and lysed with ice-cold RIPA lysis buffer supplemented with protease and phosphatase inhibitors. Samples were incubated 15min at 4°C, vortexed and spinned down for 5min at 10000rpm. All supernatants were collected and quantified for protein concentration using Quick-Bradford reagent (Bio-Rad) and 20-50µg of protein were subjected to 4-12% SDS-polyacrylamide gel electrophoresis (SDS-PAGE) (Bio-Rad, XT-Criterion). Proteins were electrotransferred at 4°C onto Hybond ECL nitrocellulose membranes (Amersham) and 5% BSA solution in TBS-Tween was used to block the membranes for 1h at room temperature. Membranes were incubated overnight with the following primary antibodies: anti-PDI (Cell Signaling, 24465), anti-CHOP (Cell Signaling, 2895S), anti-Phospho eiF2A (Cell Signaling, 9721S), anti-eiF2A (Cell Signaling, 9722) and anti-STARD1 (Abcam, ab58013), anti-BIP (Stressgen, SPA826), anti-XBP1 (Santa Cruz, CS-8015) and anti-Mln64 (Santa Cruz SC-292868), ACDAse (Sigma, SAB3500293), LRH-1 (Santa Cruz, Cs-393369) and anti-β-Actin HRP-conjugated (Sigma, A3854). Membranes were thoroughly washed with TBS-Tween and incubated for 45min with their respective HRP-conjugated secondary antibodies. Pierce ECL Western Blotting Substrate (Thermo Scientific) was used to develop the membranes. Images were digitally captured by LAS4000 (GE Healthcare) and optical density was analyzed with ImageJ software.

[4] = test system: STARD1; assay: Western blot of STARD1 protein expression in human fibroblasts; assay type: cell-based; details: U18666A 2µg/ml, 16 hours; Npc+/+ fibroblasts
Method: as §2
(§4) Fibroblasts from NPC patients were transfected with cDNA to overexpress ACDase (ASAH1) (SEQ ID NO: 5; MGC Human ASAH1 Sequence-Verified cDNA Accession: BC016481 Clone ID: 3923451) commercially purchased from GE Dharmacon. Transfection was performed using Lipofectamine2000 (Invitrogen). Briefly, 250000 fibroblasts were incubated with the transfection mixtures containing 250ng of the sobrexpression ACDase vector or the scrambled control-GFP vector. Cells were assayed 48 h after transfection for mRNA and protein levels. SEQ ID NO: 5 >ENA|BC016481|BC016481.1 Homo sapiens N-acylsphingosine amidohydrolase (acid ceramidase) 1, mRNA (cDNA clone MGC:9327 IMAGE:3923451), complete cds. [formula] [formula] [formula]
(§5) 100mg of liver were homogenized with a pestle homogenizer in 1ml of homobuffer (70mM saccharose, 220mM mannitol, 2mM Tris-HCI pH 7.4, 0,1mM EDTA, 0.1% fatty acid free BSA) supplemented with protease and phosphatase inhibitors (Roche). Liver homogenates were diluted 4 times with RIPA lysis buffer (Sigma) with anti-proteases and anti-phosphatases. Cells were washed with PBS and lysed with ice-cold RIPA lysis buffer supplemented with protease and phosphatase inhibitors. Samples were incubated 15min at 4°C, vortexed and spinned down for 5min at 10000rpm. All supernatants were collected and quantified for protein concentration using Quick-Bradford reagent (Bio-Rad) and 20-50µg of protein were subjected to 4-12% SDS-polyacrylamide gel electrophoresis (SDS-PAGE) (Bio-Rad, XT-Criterion). Proteins were electrotransferred at 4°C onto Hybond ECL nitrocellulose membranes (Amersham) and 5% BSA solution in TBS-Tween was used to block the membranes for 1h at room temperature. […] Images were digitally captured by LAS4000 (GE Healthcare) and optical density was analyzed with ImageJ software.

[5] = test system: ACDase; assay: Western blot of ACDase protein expression in primary mouse hepatocytes; assay type: cell-based; details: U18666A 2µg/ml, 16 hours; PMH from Npc1+/+ mice
Method: as §2, §3

[6] = test system: ACDase; assay: Western blot of ACDase protein expression in human fibroblasts; assay type: cell-based; details: U18666A 2µg/ml, 16 hours; control Npc+/+ fibroblasts
Method: as §2, §4, §5

[7] = test system: ER stress markers; assay: Western blot of ER stress markers in primary mouse hepatocytes; assay type: cell-based; details: incubation of Npc1+/+ PMH with U18666A
Method: as §2, §5

[8] = test system: ER stress markers (BIP, PDI and CHOP); assay: Western blot of ER stress markers in human fibroblasts; assay type: cell-based; details: control Npc+/+ fibroblasts
Method: as §5

Molecule	lysosomal cholesterol accumulation (filipin and Lamp2 staining) [1]	accumulation of cholesterol in mitochondria (colocalization of filipin and CytC staining) [2]	STARD1 expression [3]	STARD1 expression [4]	expression of ACDase [5]	expression of ACDase [6]	ER stress markers [7]	markers of ER stress (BIP, PDI and CHOP) [8]
CCN(CC)CCO[C@H]1CC[C@@]2(C)C(=CC[C@@H]3[C@@H]2CC[C@]2(C)C(=O)CC[C@@H]32)C1 [U18666A]	significantly increased lysosomal cholesterol accumulation	stimulated the accumulation of cholesterol in mitochondria	significantly increased STARD1	significantly increased STARD1	decreased the expression of ACDase	decreased the expression of ACDase	failed to induce ER stress markers	
tunicamycin								induced markers of ER stress
